Measured values published in US20250289812A1, “COMPOUND FOR TREATING THROMBOTIC DISEASES” (SHANGHAI INSTITUTE OF MATERIA MEDICA, CHINESE ACADEMY OF …, priority 2020, published 2025).

Legend:
[1] = target: Src kinase SH3 domain protein (Homo sapiens (Human), UniProt P12931); test: Surface plasmon resonance (SPR) determination of dissociation constants with SH3 protein; assay type: binding; details: SH3 protein coupled to CM5 chip
Method: 1. Experimental method: Surface plasmon resonance test was carried out on BIACORE T200 instrument (GE Company). Fresh purified grade Src kinase SH3 domain protein (concentration 2 mg/ml) was diluted to 0.1 mg/ml with 10 mM CH3COONa (pH 4.2) and then SH3 protein was coupled to the CM5 chip by standard amino coupling methods. The compounds of the invention were diluted in a gradient using a buffer solution (20 mM Tris-HCl, PH 8.0, 100 mM NaCl) for 60 seconds and dissociated for 120 seconds at a flow rate of […], respectively. The changes in response values over time were recorded and analyzed by the BIA Evaluation Software (GE Healthcare) program to obtain the dissociation constants KD for the different compounds with SH3 protein.
2. Experimental results and conclusions: The dissociation constants KD of different compounds and SH3 protein were described in Table 2, and the surface plasmon resonance (SPR) experimental results of some compounds were shown in FIG. 1.

[2] = test system: platelets on solid phase fibrinogen; test: Effect of compound on platelet stretching on solid phase fibrinogen; assay type: cell-based; details: 1 h, washed platelets, incubated 60 min at 37° C., read-out: Concentration range for compounds that inhibit platelet stretching on fibrinogen
Method: 1. Experimental method: Firstly, 50 μl fibrinogen (0.1M, diluted with pH 8.3 sodium bicarbonate, 20 μg/ml) was added to 96-well plate, and coated overnight at 4° C. After being washed by PBS for 3 times in the morning, sealed with bovine serum albumin (20 mg/ml) at 37° C. for 60 min, then 100 μl of washed platelet suspension was taken, and added into compounds in each group to make the final concentration 250 μM, and incubated at 37° C. for 60 min. 50 μl of incubated platelets were added to 96-well plate, adhered in a temperature box at 37° C. for 60 min, unadhered platelets were removed by PBS washing for 3 times, and adhered platelets were stably fixed with 4% paraformaldehyde, and washed with PBS for 3 times. Then the platelet membrane was perforated with 0.5% Triton X-100, and then the platelet was stained with 0.5 μg/ml phalloidin-rhodamine for 60 min at 37° C. and washed 3 times (10 min each) with PBS.
2. Experimental results and conclusions: The concentration of different compounds on platelet stretching on fibrinogen was shown in Table 3, and the inhibitory effect of some compounds on platelet stretching was shown in FIG. 2.

Chain of Src kinase SH3 domain protein (P12931 whole entry, looked up, the tested form may be a part): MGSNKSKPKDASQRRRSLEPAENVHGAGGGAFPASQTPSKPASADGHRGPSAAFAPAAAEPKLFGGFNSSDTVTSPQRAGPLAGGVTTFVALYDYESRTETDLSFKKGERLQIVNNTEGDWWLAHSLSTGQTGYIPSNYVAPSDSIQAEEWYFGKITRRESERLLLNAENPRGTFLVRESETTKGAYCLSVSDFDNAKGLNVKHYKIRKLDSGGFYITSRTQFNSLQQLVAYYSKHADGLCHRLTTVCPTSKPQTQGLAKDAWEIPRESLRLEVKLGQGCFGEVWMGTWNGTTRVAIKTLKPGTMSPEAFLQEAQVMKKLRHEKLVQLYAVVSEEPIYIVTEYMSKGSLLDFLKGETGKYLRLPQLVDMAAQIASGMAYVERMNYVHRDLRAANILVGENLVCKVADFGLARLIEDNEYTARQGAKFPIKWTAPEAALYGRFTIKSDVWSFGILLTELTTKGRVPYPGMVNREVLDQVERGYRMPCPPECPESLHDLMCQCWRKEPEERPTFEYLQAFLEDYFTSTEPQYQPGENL

CCOC(=O)c1c(CNC(=N)N)n(C)c2cc(-c3cc(Cl)cc4ccccc34)ccc12 [SYY-C090]
Kd [1]: 1 to 10 µM | minimal effective concentration [2]: 100 to 250 µM

CCOC(=O)c1c(CNC(=N)N)n(C)c2cc(-c3cccc4cccc(C)c34)ccc12 [SYY-C091]
Kd [1]: < 1 µM | minimal effective concentration [2]: 10 to 100 µM

CCOC(=O)c1c(CNC(=N)N)n(C)c2cc(-c3cc(F)cc4ccccc34)ccc12 [SYY-C092]
Kd [1]: 10 to 100 µM | minimal effective concentration [2]: 100 to 250 µM

CCOC(=O)c1c(CNC(=N)N)n(C)c2cc(-c3cccc4cc(Cl)ccc34)ccc12 [SYY-C093]
Kd [1]: < 1 µM | minimal effective concentration [2]: 10 to 100 µM

CCOC(=O)c1c(CNC(=N)N)n(C)c2cc(-c3cccc4cccc(Cl)c34)ccc12 [SYY-C095]
Kd [1]: 10 to 100 µM | minimal effective concentration [2]: 10 to 100 µM

CCOC(=O)c1c(CNC(=N)N)n(C)c2cc(-c3cccc4cccc(F)c34)ccc12 [SYY-C096]
Kd [1]: < 1 µM | minimal effective concentration [2]: 10 to 100 µM

CCOC(=O)c1c(CNC(=N)N)n(C)c2cc(-c3cccc4ccc(F)cc34)ccc12 [SYY-C097]
Kd [1]: 10 to 100 µM | minimal effective concentration [2]: 10 to 100 µM

CCOC(=O)c1c(CNC(=N)N)n(C)c2cc(-c3cccc4cc(F)ccc34)ccc12 [SYY-C098]
Kd [1]: < 1 µM | minimal effective concentration [2]: 10 to 100 µM

CNC(=O)c1c(CNC(=N)N)n(C)c2cc(-c3cccc4ccccc34)ccc12 [SYY-C099]
Kd [1]: < 1 µM | minimal effective concentration [2]: 10 to 100 µM

CN(C)C(=O)c1c(CNC(=N)N)n(C)c2cc(-c3cccc4ccccc34)ccc12 [SYY-C100]
Kd [1]: 1 to 10 µM | minimal effective concentration [2]: 100 to 250 µM

Cn1c(CNC(=N)N)c(C(N)=O)c2ccc(-c3cccc4ccccc34)cc21 [SYY-C101]
Kd [1]: < 1 µM | minimal effective concentration [2]: 10 to 100 µM

Cn1c(CNC(=N)N)c(C#N)c2ccc(-c3cccc4ccccc34)cc21 [SYY-C102]
Kd [1]: < 1 µM | minimal effective concentration [2]: 10 to 100 µM

CCOC(=O)c1c(CNC(=N)N)n(C)c2cc(-c3cccc4ccccc34)c(OC)cc12 [SYY-C103]
Kd [1]: 1 to 10 µM | minimal effective concentration [2]: 100 to 250 µM

CCOC(=O)c1c(CNC(=N)N)n(C)c2cc(-c3cccc4ccccc34)c(Cl)cc12 [SYY-C104]
Kd [1]: < 1 µM | minimal effective concentration [2]: 10 to 100 µM

CC(=O)Nc1c(CNC(=N)N)n(C)c2cc(-c3cccc4ccccc34)ccc12 [SYY-C105]
Kd [1]: < 1 µM | minimal effective concentration [2]: 10 to 100 µM

CCOC(=O)c1c(CNC(=N)N)oc2cc(-c3cccc4ccccc34)ccc12 [SYY-C106]
Kd [1]: 1 to 10 µM | minimal effective concentration [2]: 100 to 250 µM

CCOC(=O)c1c(CNC(=N)N)sc2ccc(-c3cccc4ccccc34)cc12 [SYY-C107]
Kd [1]: < 1 µM | minimal effective concentration [2]: 10 to 100 µM

CCOC(=O)c1c(CNC(=N)N)sc2cc(-c3cccc4ccccc34)ccc12 [SYY-C108]
Kd [1]: 10 to 100 µM | minimal effective concentration [2]: 100 to 250 µM

CCOC(=O)c1c(CNC(=N)N)n(C)c2cc(-c3cccc4ccccc34)c(Br)cc12 [SYY-C109]
Kd [1]: < 1 µM | minimal effective concentration [2]: 10 to 100 µM

CCOC(=O)c1c(CNC(=N)N)n(C)c2cc(-c3cccc4ccccc34)c(OC3CCCC3)cc12 [SYY-C110]
Kd [1]: < 1 µM | minimal effective concentration [2]: 10 to 100 µM

CCOC(=O)c1c(CNC(=N)N)n(C)c2cc(-c3cccc4ccccc34)c(C3=CCCC3)cc12 [SYY-C111]
Kd [1]: 1 to 10 µM | minimal effective concentration [2]: 100 to 250 µM

CCOC(=O)c1c(CNC(=N)N)n(C)c2cc(-c3cccc4ccccc34)c(C3CC3)cc12 [SYY-C112]
Kd [1]: < 1 µM | minimal effective concentration [2]: 10 to 100 µM

CCOC(=O)c1c(CNC(=N)N)n(C)c2cc(-c3cccc4ccccc34)c(C3CCCC3)cc12 [SYY-C113]
Kd [1]: < 1 µM | minimal effective concentration [2]: 10 to 100 µM

CCOC(=O)c1c(CNC(=N)N)n(C)c2cc(OC)c(-c3cccc4ccccc34)cc12 [SYY-C114]
Kd [1]: 10 to 100 µM | minimal effective concentration [2]: 10 to 100 µM

CCOC(=O)c1c(CNC(=N)N)n(C)c2cc(OC3CCCC3)c(-c3cccc4ccccc34)cc12 [SYY-C115]
Kd [1]: < 1 µM | minimal effective concentration [2]: 10 to 100 µM

CCOC(=O)c1c(CNC(=N)N)n(C)c2cc(C3=CCCC3)c(-c3cccc4ccccc34)cc12 [SYY-C116]
Kd [1]: < 1 µM | minimal effective concentration [2]: 10 to 100 µM

CCOC(=O)c1c(CNC(=N)N)n(C)c2cc(C3CCCC3)c(-c3cccc4ccccc34)cc12 [SYY-C117]
Kd [1]: 10 to 100 µM | minimal effective concentration [2]: 100 to 250 µM

CCOC(=O)c1c(CNC(=N)N)n(C)c2cc(Cl)c(-c3cccc4ccccc34)cc12 [SYY-C118]
Kd [1]: < 1 µM | minimal effective concentration [2]: 10 to 100 µM

CCOC(=O)c1c(CNC(=N)N)n(C)c2cc(Br)c(-c3cccc4ccccc34)cc12 [SYY-C119]
Kd [1]: < 1 µM | minimal effective concentration [2]: 10 to 100 µM

CCOC(=O)c1c(CNC(=N)N)n(C)c2cc(C3CC3)c(-c3cccc4ccccc34)cc12 [SYY-C120]
Kd [1]: < 1 µM | minimal effective concentration [2]: 10 to 100 µM

CCOC(=O)c1c(CNC(=N)N)sc2cc(-c3cccc4ccccc34)c(C3CCCC3)cc12 [SYY-C121]
Kd [1]: 1 to 10 µM | minimal effective concentration [2]: 100 to 250 µM

CCOC(=O)c1c(CNC(=N)N)sc2cc(-c3cccc4ccccc34)c(C3CCCCC3)cc12 [SYY-C122]
Kd [1]: < 1 µM | minimal effective concentration [2]: 10 to 100 µM

CCOC(=O)c1c(CNC(=N)N)sc2cc(-c3cccc4ccccc34)c(C3=CCCC3)cc12 [SYY-C123]
Kd [1]: 10 to 100 µM | minimal effective concentration [2]: 100 to 250 µM

CCOC(=O)c1c(CNC(=N)N)sc2cc(-c3cccc4ccccc34)c(C3=CCCCC3)cc12 [SYY-C124]
Kd [1]: < 1 µM | minimal effective concentration [2]: 10 to 100 µM

CCOC(=O)c1c(CNC(=N)N)sc2cc(-c3cccc4ccccc34)c(OC)cc12 [SYY-C125]
Kd [1]: < 1 µM | minimal effective concentration [2]: 10 to 100 µM

CCOC(=O)c1c(CNC(=N)N)sc2cc(-c3cccc4ccccc34)c(OC3CCCC3)cc12 [SYY-C126]
Kd [1]: < 1 µM | minimal effective concentration [2]: 10 to 100 µM

CCOC(=O)c1c(CNC(=N)N)sc2cc(-c3cccc4ccccc34)c(OC3CCCCC3)cc12 [SYY-C127]
Kd [1]: < 1 µM | minimal effective concentration [2]: 10 to 100 µM

CCOC(=O)c1c(CNC(=N)N)sc2cc(-c3cccc4ccccc34)c(Oc3ccccc3)cc12 [SYY-C128]
Kd [1]: 10 to 100 µM | minimal effective concentration [2]: 100 to 250 µM

CCOC(=O)c1c(CNC(=N)N)sc2cc(-c3cccc4ccccc34)c(Oc3ccncc3)cc12 [SYY-C129]
Kd [1]: < 1 µM | minimal effective concentration [2]: 10 to 100 µM

CCOC(=O)c1c(CNC(=N)N)sc2cc(-c3cccc4ccccc34)c(C3=CCCc4ccccc43)cc12 [SYY-C130]
Kd [1]: 10 to 100 µM | minimal effective concentration [2]: 100 to 250 µM

CCOC(=O)c1c(CNC(=N)N)sc2cc(-c3cccc4ccccc34)c(C3CCCc4ccccc43)cc12 (stereo not shown) [SYY-C131]
Kd [1]: 10 to 100 µM | minimal effective concentration [2]: 100 to 250 µM
